Measurements as given in ChEMBL document CHEMBL1201862, “PubChem BioAssay data set” (2004).
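Briefly, cells in 96-well plates were exposed to five compound concentrations for 48 h, and endpoints were estimated by linear interpolation. GI50 is the concentration that inhibits growth by half.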 The source made the active and inactive calls. No stated cut-off is given here; in the data, active = GI50 up to about 1.1 µM and inactive = higher.

Key:
Test in all cases: NCI-60 cell line screen, 48 h
SNB-75 = tested on: SNB-75
T47D = tested on: T47D
DU-145 = tested on: DU-145
MDA-N = tested on: MDA-N
A549 = tested on: A549
SK-MEL-5 = tested on: SK-MEL-5
SF-539 = tested on: SF-539
HL-60 = tested on: HL-60
NCI-H23 = tested on: NCI-H23
LOX IMVI = tested on: LOX IMVI
HOP-62 = tested on: HOP-62
SK-MEL-28 = tested on: SK-MEL-28
HCT-15 = tested on: HCT-15
NCI-H460 = tested on: NCI-H460
OVCAR-4 = tested on: OVCAR-4
CCRF-CEM = tested on: CCRF-CEM

Compound | GI50 (SNB-75) | GI50 (T47D) | GI50 (DU-145) | GI50 (MDA-N) | GI50 (A549) | GI50 (SK-MEL-5) | GI50 (SF-539) | GI50 (HL-60) | GI50 (NCI-H23) | GI50 (LOX IMVI) | GI50 (HOP-62) | GI50 (SK-MEL-28) | GI50 (HCT-15) [µM] | GI50 (NCI-H460) | GI50 (OVCAR-4) | GI50 (CCRF-CEM)
COc1ccc(CCN2C(=O)C=CC2=O)cc1OC | 20.5 µM (inactive) | 7.16 µM (inactive) | 16.5 µM (inactive) | 17.8 µM (inactive) | 23 µM (inactive) | 17.3 µM (inactive) | 17.3 µM (inactive) | 8.39 µM (inactive) | 22 µM (inactive) | 18.5 µM (inactive) | 22.5 µM (inactive) | 16.4 µM (inactive) | 1.87 | 21.5 µM (inactive) | 1.88 µM (inactive) | 1.85 µM (inactive)
CC(C)Cc1c(C#N)c(C#N)c(N)n1Cc1ccccc1 | 40.8 µM (inactive) | > 100 µM (inactive) | > 100 µM (inactive) | > 100 µM (inactive) | > 100 µM (inactive) | > 100 µM (inactive) | > 100 µM (inactive) | > 100 µM (inactive) | > 100 µM (inactive) | > 100 µM (inactive) | > 100 µM (inactive) |  | > 100 |  | > 100 µM (inactive) | > 100 µM (inactive)
COc1ccc(OC)c2sc(N3C(=O)/C(=C/c4ccc(N(C)C)cc4)N=C3c3ccccc3)nc12 | 80.5 µM (inactive) | 38.5 µM (inactive) | > 100 µM (inactive) | 22.2 µM (inactive) | 83.6 µM (inactive) | 39.2 µM (inactive) | 98.2 µM (inactive) | 20.9 µM (inactive) |  | 41 µM (inactive) | > 100 µM (inactive) | > 100 µM (inactive) | 59.2 | 92.9 µM (inactive) | > 100 µM (inactive) | 6.04 µM (inactive)
Cc1cc2c(cc1C)C(=O)C1(C2)Cc2c(C)ccc(C)c2C1=O (centres undefined) | > 100 µM (inactive) | 25.2 µM (inactive) | > 100 µM (inactive) | > 100 µM (inactive) | > 100 µM (inactive) | > 100 µM (inactive) | > 100 µM (inactive) | > 100 µM (inactive) |  | > 100 µM (inactive) |  | > 100 µM (inactive) | > 100 | > 100 µM (inactive) | > 100 µM (inactive) | > 100 µM (inactive)
Cc1ccc(/C(=C\C(=O)C(=O)NC23CC4CC(CC(C4)C2)C3)Sc2ccccc2)cc1 | > 10 µM (inactive) | > 10 µM (inactive) | > 10 µM (inactive) | > 10 µM (inactive) |  | > 10 µM (inactive) | > 10 µM (inactive) | 5.82 µM (inactive) | > 10 µM (inactive) | > 10 µM (inactive) | > 10 µM (inactive) | > 10 µM (inactive) | > 10 | > 10 µM (inactive) | 6.43 µM (inactive) | 4.75 µM (inactive)
O=C(O)CSC(CC1(c2ccc(Cl)cc2)NC(=O)CS1)c1ccc(Cl)cc1 (centres undefined) | > 100 µM (inactive) | 80.9 µM (inactive) | > 100 µM (inactive) | > 100 µM (inactive) | > 100 µM (inactive) | > 100 µM (inactive) | > 100 µM (inactive) | > 100 µM (inactive) | > 100 µM (inactive) | > 100 µM (inactive) | > 100 µM (inactive) |  | > 100 | 85.5 µM (inactive) | > 100 µM (inactive) | 69.3 µM (inactive)
CCOC(=O)NNC(=O)NCCNC(=O)NNC(=O)OCC | > 100 µM (inactive) | > 100 µM (inactive) | > 100 µM (inactive) | > 100 µM (inactive) | > 100 µM (inactive) | > 100 µM (inactive) | > 100 µM (inactive) | > 100 µM (inactive) | > 100 µM (inactive) | > 100 µM (inactive) |  | > 100 µM (inactive) | > 100 | > 100 µM (inactive) | > 100 µM (inactive) | > 100 µM (inactive)
